Experimental findings from ChEMBL document CHEMBL1201862, “PubChem BioAssay data set” (2004) are described below.

Some test systems named below: A549; ACHN; HL-60; Hs-578T; IGROV-1; KM12; M14; MCF7; Malme-3M; NCI-H23; NCI-H460; OVCAR-3; OVCAR-4; OVCAR-8; PC-3; RPMI-8226; SF-295; SNB-19; U-251.
Holding throughout (test): growth of human tumour cells (NCI), 48 h

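Protocol summary: plate cells (96-well), add compound at 5 concentrations, incubate 48 h, interpolate endpoints linearly. The concentration for 50% growth inhibition is given as GI50.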 Active and inactive are the calls of the source. Rule as the data show it: active = GI50 up to about 1.1 µM and inactive = higher.

Regarding `COC(=O)C(Cc1ccccc1)NC(=O)CNC(=O)CSc1nnc(COc2ccc(Cl)cc2)n1-c1ccccc1` (stereo not drawn), the GI50 with A549 was 17.8 µM (inactive); in the experiment with ACHN, 14.2 µM (inactive); with HL-60, 4.8 µM (inactive); in the experiment on Hs-578T it was 26.5 µM (inactive); in the experiment with IGROV-1 it was 15.4 µM (inactive); in the experiment on KM12, 18.7 µM (inactive). The GI50 in the experiment with M14 was 17.7 µM (inactive); in the experiment on MCF7 it was 18.2 µM (inactive); with Malme-3M it was 18.7 µM (inactive); in the experiment on NCI-H23, 18.7 µM (inactive); in the experiment on NCI-H460 it was 16.3 µM (inactive); in the experiment on OVCAR-3, 16.7 µM (inactive). Further, the GI50 with OVCAR-4 was 6.73 µM (inactive); in the experiment on OVCAR-8, 13.7 µM (inactive); in the experiment on PC-3 it was 17.1 µM (inactive); in the experiment on RPMI-8226 it was 4.74 µM (inactive); with SF-295, 17.8 µM (inactive); with SNB-19, 17.2 µM (inactive). The GI50 with U-251 is 18.2 µM (inactive).

In the case of `Cc1ccc2c(c1)C(=O)/C(=C\c1ccc(Cl)cc1)CCS2(=O)=O`, the GI50 with A549 is 4.06 µM (inactive); in the experiment with ACHN, 1.95 µM (inactive); in the experiment with HL-60, 2.66 µM (inactive); in the experiment on Hs-578T it was 3.1 µM (inactive); with IGROV-1, 2.65 µM (inactive); with KM12, 2.66 µM (inactive). Also, the GI50 with M14 was 4.05 µM (inactive); in the experiment with MCF7, 3.85 µM (inactive); in the experiment with Malme-3M, 2.07 µM (inactive); with NCI-H23, 3.28 µM (inactive); in the experiment with NCI-H460, 2.13 µM (inactive); in the experiment with OVCAR-3, 4.24 µM (inactive). Also, the GI50 in the experiment on OVCAR-4 was 2.64 µM (inactive); with OVCAR-8, 1.95 µM (inactive); in the experiment with PC-3 it was 5.09 µM (inactive); in the experiment with RPMI-8226 it was 2.34 µM (inactive); with SF-295, 4.21 µM (inactive); with SNB-19, 2.1 µM (inactive). The GI50 in the experiment with U-251 is 3.38 µM (inactive).

Turning to `CN(C)CCNC(=O)c1ccc(Cl)c2cc3ccccc3nc12`, the GI50 with A549 is 0.389 µM (active); in the experiment with ACHN, 0.424 µM (active); with HL-60, 0.608 µM (active); with Hs-578T, 0.759 µM (active); with IGROV-1, 0.708 µM (active); in the experiment on KM12, 0.807 µM (active). Moreover, the GI50 in the experiment on M14 was 1.23 µM (inactive); with MCF7, 0.381 µM (active); in the experiment with Malme-3M, 0.731 µM (active); in the experiment with NCI-H23, 0.632 µM (active); with NCI-H460, 0.218 µM (active); in the experiment on OVCAR-3, 1.22 µM (inactive). Besides, the GI50 in the experiment on OVCAR-4 was 0.653 µM (active); in the experiment with OVCAR-8, 0.481 µM (active); in the experiment with PC-3, 0.807 µM (active); in the experiment with RPMI-8226, 0.463 µM (active); in the experiment on SF-295 it was 0.885 µM (active); in the experiment on SNB-19 it was 0.998 µM (active). Further, the GI50 in the experiment on U-251 is 0.6 µM (active).

`CN1CCC2(CC1)C(=O)N(NC(N)=O)C(=O)C2c1ccccc1` (stereo not drawn): the GI50 with A549, in the experiment on ACHN, with HL-60, in the experiment with Hs-578T, in the experiment on IGROV-1 and in the experiment on KM12 was > 100 µM (inactive) each time. Moreover, the GI50 is > 100 µM (inactive) with M14; > 10 µM (inactive) in the experiment with MCF7; > 100 µM (inactive) in the experiment with Malme-3M; > 100 µM (inactive) with NCI-H23; > 100 µM (inactive) in the experiment on NCI-H460; > 100 µM (inactive) with OVCAR-3. Also, the GI50 in the experiment with OVCAR-4, in the experiment with OVCAR-8, with PC-3, with RPMI-8226, in the experiment with SF-295 and with SNB-19 was > 100 µM (inactive) each time. The GI50 in the experiment with U-251 was > 100 µM (inactive).

With `O=[N+]([O-])c1ccc(N2N=C(c3ccc4ccccc4c3O)CC2c2ccc(Cl)cc2Cl)c([N+](=O)[O-])c1` (stereo not drawn), the GI50 is 28.5 µM (inactive) in the experiment on A549; 25.2 µM (inactive) with ACHN; 7.59 µM (inactive) with HL-60; 27.9 µM (inactive) in the experiment on Hs-578T; 23.3 µM (inactive) in the experiment on IGROV-1; 29 µM (inactive) in the experiment with KM12. The GI50 in the experiment with M14 was > 10 µM (inactive); in the experiment with MCF7, 40.9 µM (inactive); with Malme-3M, 32.2 µM (inactive); in the experiment with NCI-H23, 24.7 µM (inactive); in the experiment with NCI-H460, 51.1 µM (inactive); in the experiment with OVCAR-3, 33.7 µM (inactive). Besides, the GI50 in the experiment with OVCAR-4 is 41.7 µM (inactive); with OVCAR-8, 33.3 µM (inactive); with PC-3, 35.1 µM (inactive); with RPMI-8226, 18.8 µM (inactive); with SF-295 it was 24.3 µM (inactive); in the experiment on SNB-19, 29.3 µM (inactive). Further, the GI50 in the experiment with U-251 is 28 µM (inactive).

`Cc1ccc(C(=O)/C=C2\Nc3cccnc3NC2=O)cc1`: the GI50 with A549 was > 100 µM (inactive); in the experiment with ACHN it was > 100 µM (inactive); in the experiment with HL-60 it was > 100 µM (inactive); with Hs-578T it was 37.8 µM (inactive); with IGROV-1, > 100 µM (inactive); with KM12, > 100 µM (inactive). The GI50 with M14 was > 100 µM (inactive); in the experiment with MCF7 it was > 100 µM (inactive); with Malme-3M it was 95.9 µM (inactive); in the experiment on NCI-H23, > 100 µM (inactive); with NCI-H460 it was > 100 µM (inactive); in the experiment on OVCAR-3, > 100 µM (inactive). Moreover, the GI50 in the experiment with OVCAR-4 was > 100 µM (inactive); with OVCAR-8, 51.2 µM (inactive); in the experiment on PC-3, > 100 µM (inactive); in the experiment on RPMI-8226 it was > 100 µM (inactive); in the experiment on SF-295, > 100 µM (inactive); in the experiment on SNB-19, > 100 µM (inactive). The GI50 with U-251 was 39.5 µM (inactive).

Regarding `CC1(C)CC2(C)ON=C(c3ccccc3)N2c2ccccc2N1` (stereo not drawn), the GI50 is 25.1 µM (inactive) in the experiment with A549; 19.5 µM (inactive) in the experiment with ACHN; 19.7 µM (inactive) with HL-60; 18.8 µM (inactive) in the experiment with Hs-578T; 32.1 µM (inactive) in the experiment on IGROV-1; 30.6 µM (inactive) in the experiment with KM12. Further, the GI50 in the experiment with M14 was 19.6 µM (inactive); in the experiment with MCF7, 22.2 µM (inactive); in the experiment on Malme-3M, 20.5 µM (inactive); with NCI-H23, 25 µM (inactive); with NCI-H460 it was 20.9 µM (inactive); with OVCAR-3, 16.5 µM (inactive). Besides, the GI50 in the experiment on OVCAR-4 was 39.8 µM (inactive); in the experiment with OVCAR-8, 27.7 µM (inactive); in the experiment with PC-3 it was 14.8 µM (inactive); with RPMI-8226, 29 µM (inactive); in the experiment on SF-295, 28.7 µM (inactive); with SNB-19, 24.2 µM (inactive). Moreover, in the experiment on U-251, the GI50 was 19.8 µM (inactive).
